Data from PMC2814954 (Biochemical pharmacology, 2009).

Assays:
Caco-2 cells [1] = test: C1-BODIPY-C12 fatty acid uptake inhibition in Caco-2 cells; assay type: cell-based, human; settings: for IC50: Homo sapiens, Caco-2, read-out: Caco-2 IC50; for % Transport Standard Assay: compound 40 μM, Caco-2 cells, % of no-compound control, mean ± SD
Caco-2 cells [2] = test: Reversibility of fatty acid uptake inhibition after 24 h recovery; assay type: cell-based, human; settings: compound 40 μM for 1 h, washed, mean ± SD
Caco-2 cells [3] = test: Glucose; assay type: cell-based, human; settings: 1 h preincubation
[4] = test system: long chain acyl-CoA synthetase (Acsl); test: Oleoyl-CoA synthetase; assay type: biochemical, human; settings: Caco-2 cells pretreated 1 h; for Oleoyl CoA synthetase activity after compound treatment: rinsed, total cell extracts
Caco-2 cells [5] = test: MTT cytotoxicity assay in Caco-2 cells; settings: 24 h
HepG2 cells = test: C1-BODIPY-C12 fatty acid uptake inhibition in HepG2 cells; assay type: cell-based; settings: Homo sapiens, HepG2, read-out: HepG2 IC50
3T3-L1 adipocytes = test: C1-BODIPY-C12 fatty acid uptake inhibition in 3T3-L1 adipocytes; assay type: cell-based; settings: Mus musculus, 3T3-L1, read-out: 3T3-L1 Adipocytes IC50
[6] = 50 μM, Caco-2 cells (10 times the IC50 dosage)

| IC50 (Caco-2 cells [1]) | IC50 (HepG2 cells) | Structure (SMILES) | % Transport after 24 Hour Recovery (Caco-2 cells [2]) | 2-NBDG glucose transport (Caco-2 cells [3]; 20 μM) | Oleoyl CoA synthetase activity after compound treatment [4] | Cellular toxicity (MTT assay) (Caco-2 cells [5]; [6]) | % Transport Standard Assay (Caco-2 cells [1]) | IC50 (3T3-L1 adipocytes) | Inhibition of oleoyl CoA synthetase activity ([4]; 50 μM (10 times the IC50), cell extracts) | 2-NBDG glucose transport (Caco-2 cells [3]; 50 μM) | Cellular toxicity (MTT assay) (Caco-2 cells [5]; 100 μM, Caco-2 cells) |
| --- | --- | --- | --- | --- | --- | --- | --- | --- | --- | --- | --- |
| 4.93 ± 0.4 µM | – | Oc1c(C2=NCCNC(C(F)(F)F)=C2)ccc2ccccc12 [CB-6, 2-[7-(trifluoromethyl)-2,3-dihydro-1H-1,4-diazepin-5-yl]naphthalen-1-ol] | 74 ± 12% | not affected | not reduced | not toxic | – | – | – | – | – |
| 6.34 ± 0.93 µM | 10.2 ± 1.26 µM | O=c1cc(-c2ccc([N+](=O)[O-])cc2)nc2c(-c3ccc(Cl)cc3)c(Cc3ccccc3)[nH]n12 [CB-5, 2-benzyl-3-(4-chlorophenyl)-5-(4-nitrophenyl)-1H-pyrazolo[5,1-b]pyrimidin-7-one] | 88 ±18% | not affected | not reduced | not toxic | 54 ± 1% | 901 ± 205 µM | – | – | – |
| 6.66 ± 0.64 µM | – | O=C1C=CC=CC1=C1NNC2(S1)C(=O)Nc1ccc(Br)cc12 (stereo not drawn) [CB-16, 5′-bromo-5-(6-oxocyclohexa-2,4-dien-1-ylidene)spiro[1,3,4-thiadiazolidine-2,3′-1H-indole]-2′-one] | 99 ± 16% | not affected | not reduced | not toxic | – | – | – | – | – |
| 3.99 ± 0.32 µM | 7.55 ± 1.23 µM | COc1cc(/C=C2/SC(=S)N(c3cccc(Cl)c3)C2=O)cc(Br)c1O [CB-2, (5E)-5-[(3-bromo-4-hydroxy-5-methoxyphenyl)methylene]-3-(3-chlorophenyl)-2-thioxothiazolidin-4-one] | 93 ±13% | not affected | – | not toxic | 46 ± 3% | 231 ± 33.5 µM | about 50% | – | – |

| Structure (SMILES) | IC50 (Caco-2 cells [1]) | IC50 (HepG2 cells) | % Transport after 24 Hour Recovery (Caco-2 cells [2]) | 2-NBDG glucose transport (Caco-2 cells [3]; 20 μM) | Oleoyl CoA synthetase activity after compound treatment [4] | Cellular toxicity (MTT assay) (Caco-2 cells [5]; [6]) | % Transport Standard Assay (Caco-2 cells [1]) | IC50 (3T3-L1 adipocytes) | Inhibition of oleoyl CoA synthetase activity ([4]; 50 μM (10 times the IC50), cell extracts) | 2-NBDG glucose transport (Caco-2 cells [3]; 50 μM) | Cellular toxicity (MTT assay) (Caco-2 cells [5]; 100 μM, Caco-2 cells) |
| --- | --- | --- | --- | --- | --- | --- | --- | --- | --- | --- | --- |
| OCC(CCc1c[nH]c2ccccc12)c1c[nH]c2ccccc12 (stereo not drawn) [NCI-3, 2,4-bis(1H-indol-3-yl)butan-1-ol] | 29.2 ± 3.64 µM | 84.1 ± 14.1 µM | – | – | not reduced | – | 52 ± 2% | 143 ± 22.4 µM | – | reduced 2-NBDG transport slightly | not toxic |
